From article PMC10793101 (Acta Pharmaceutica Sinica. B, 2023)

Columns and labels:
TFEB [1] = biological target: T1, TFEB (Homo sapiens, UniProt P19484); assay: GFP-TFEB nuclear translocation assay in qHTS format; type: cell-based, mouse
T1 sequence (P19484 1-476): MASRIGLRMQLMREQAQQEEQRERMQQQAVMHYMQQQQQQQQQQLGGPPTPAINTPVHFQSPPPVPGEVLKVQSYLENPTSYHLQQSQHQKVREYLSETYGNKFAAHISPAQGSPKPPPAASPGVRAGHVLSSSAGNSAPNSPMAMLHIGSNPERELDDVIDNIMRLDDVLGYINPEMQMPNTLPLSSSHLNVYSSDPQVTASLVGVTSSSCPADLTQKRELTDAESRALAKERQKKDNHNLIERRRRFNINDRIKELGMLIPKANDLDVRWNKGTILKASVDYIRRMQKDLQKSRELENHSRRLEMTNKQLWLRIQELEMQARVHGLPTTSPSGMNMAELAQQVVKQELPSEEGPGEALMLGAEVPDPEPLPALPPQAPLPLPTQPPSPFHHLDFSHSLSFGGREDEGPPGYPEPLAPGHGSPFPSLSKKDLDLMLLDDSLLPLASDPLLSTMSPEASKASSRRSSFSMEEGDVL

TFEB [2] = biological target: T1, TFEB; assay: GFP-TFEB nuclear translocation validation by confocal microscopy in AML12 cells; type: cell-based, mouse; conditions: stably expressing pEGFP-N1-TFEB AML12 cells, 24 h, vs control
TFEB [3] = assay: TFEB promoter-driven luciferase reporter assay in AML12 cells; type: cell-based, mouse; conditions: AML12 cells transfected with pGL3-TFEB-Luc, 24 h treatment
TFEB [4] = assay: qPCR of TFEB target genes in AML12 cells; type: cell-based, mouse; conditions: qPCR normalized to 18s
[5] = system: APAP-induced liver injury (AILI); assay: Protection against APAP overdose-induced liver injury in mice; type: in vivo, mouse
[6] = system: APAP-induced liver injury (AILI); conditions: cited from earlier work
[7] = salinomycin 5 mg/kg i.p. with APAP 500 mg/kg i.p., 6 and 24 h

Compound: CC[C@@H](C(=O)[C@@H](C)[C@@H](O)[C@H](C)[C@@H]1O[C@@H]([C@@H](CC)C(=O)O)CC[C@@H]1C)[C@H]1O[C@]2(C=C[C@@H](O)[C@]3(CC[C@@](C)([C@H]4CC[C@](O)(CC)[C@H](C)O4)O3)O2)[C@H](C)C[C@@H]1C [Salinomycin]
- EC50 (TFEB [1]): 2640 nM
- nuclear translocation of TFEB (TFEB [2]): significantly increased
- TFEB promoter driven luciferase activity (TFEB [3]): significantly increased
- mRNA levels of TFEB target genes (Tfeb, Sqstm1, Ppargc1a, Lamp1, Vatp6v1d, Vatp6v1h, Pparα) (TFEB [4]): increased
- hepatic levels of APAP-protein adducts ([5]; APAP-treated mice with or without salinomycin): similar
- serum levels of APAP-adducts ([5]; APAP-treated mice with salinomycin): markedly decreased
- hepatic protein levels of CYP2E1 ([5]; immunoblotting, salinomycin 5 mg/kg i.p.): did not change
- hepatic TFEB levels ([5]; immunoblotting, salinomycin with APAP vs APAP): partially recovered
- levels of phosphorylated JNK ([5]; liver, co-treatment of salinomycin after APAP overdose): reduced
- areas of centrilobular necrosis (H&E and TUNEL staining) ([5]; salinomycin 5 mg/kg i.p. with APAP 500 mg/kg i.p.): almost completely abolished
- serum ALT levels [5, 7]: markedly decreased
- serum AST levels [5, 7]: markedly decreased

Compound: CC(=O)Nc1ccc(O)cc1 [APAP, Acetaminophen]
- levels of hepatic GSH (mouse livers; APAP 0.5, 2 and 6 h, recovered at 24 h): significantly decreased
- serum alanine aminotransferase (ALT) levels (mouse livers; APAP 500 mg/kg i.p., 6 or 24 h, vs saline): significantly increased
- mRNA levels of TFEB targeted genes in liver (mouse livers; APAP 500 mg/kg, 6 h, vs saline): significantly lower
- levels of hepatic CYP2E1 (mouse livers; APAP-treated WT mouse livers vs saline-treated WT): ~2 fold

Compound: CCC(=O)N1CCN(c2ccc(-n3c(=O)ccc4cnc5ccc(-c6cnc7ccccc7c6)cc5c43)cc2C(F)(F)F)CC1 [Torin1, Torin 1]
- nuclear translocation of TFEB (TFEB [2]): significantly increased

Compound: C[C@@H]1O[C@@H](OC[C@H]2O[C@@H](Oc3cc(O)c4c(c3)O[C@H](c3ccc(O)cc3)CC4=O)[C@H](O)[C@@H](O)[C@@H]2O)[C@H](O)[C@H](O)[C@H]1O [Narirutin]
- hepatic APAP-adducts and AILI ([6]; mice, by activating TFEB via enhanced calcineurin activity): decrease

Compound: CCN(CC)CCNC(=O)c1c(C)[nH]c(/C=C2\C(=O)Nc3ccc(F)cc32)c1C [Sunitinib]
- effect on AILI at high dose ([6]; high dose): increases AILI
- effect on AILI at low dose ([6]; low dose): mild hepatoprotective effect
